Here are results for 38 compounds from patent US9776979B2, “EBI2 modulators” (Sanford-Burnham Medical Research Institute, priority 2013, dated 2017).

The target in the experiment is EBI2 (Homo sapiens, UniProt P32249). Description: Cell-based luminescent assay (EBI2 modulation). Conditions: cell-based luminescence; 7a,25-OHC final assay concentration 80 nM; 60 minutes incubation; read-out: IC50. In a few lines: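 Cells plated overnight at 37° C, then exposed to compound at 4-5 uM final with 80 nM 7a,25-OHC agonist for 60 min at 37° C. Luminescence read after 60 min detection at 25° C in the dark; values normalized to neutral and stimulator controls and plate-pattern corrected.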
Sequence of EBI2 (P32249 whole entry): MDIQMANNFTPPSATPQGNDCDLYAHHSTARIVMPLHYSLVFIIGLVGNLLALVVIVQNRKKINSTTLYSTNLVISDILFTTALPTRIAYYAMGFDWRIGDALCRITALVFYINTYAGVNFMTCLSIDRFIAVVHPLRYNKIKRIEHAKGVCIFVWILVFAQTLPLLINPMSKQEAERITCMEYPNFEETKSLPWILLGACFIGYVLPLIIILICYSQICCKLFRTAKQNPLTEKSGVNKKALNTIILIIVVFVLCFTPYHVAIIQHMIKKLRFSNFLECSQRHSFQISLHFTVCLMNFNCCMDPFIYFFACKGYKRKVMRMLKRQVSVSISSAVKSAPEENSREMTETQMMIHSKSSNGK

pIC50: −log10 of the molar value.

For `O=C(c1cc2cc(Cl)ccc2[nH]1)N1CCN(Cc2ccc(Cl)cc2C(F)(F)F)CC1` [Compound C428, 5-chloroindol-2-yl 4-{[4-chloro-2-(trifluoromethyl)phenyl]methyl}piperazinyl ketone], the pIC50 is 6.30 to 7.00. As to `O=C(Nc1ccc(Cl)cc1)N1CCN(C(=O)c2cc3cc(Cl)ccc3[nH]2)CC1` [Compound C429, {4-[(5-chloroindol-2-yl)carbonyl]piperazinyl}-N-(4-chlorophenyl)carboxamide], the negative logarithm of the IC50 (pIC50) was 6.30 to 7.00. In the case of `O=C(C=Cc1ccc2c(c1)OCO2)N1CCN(C(=O)c2ccc(C(F)(F)F)cc2)CC1` [Compound C430, 3-(2H-benzo[3,4-d]1,3-dioxolen-5-yl)-1-(4-{[4-(trifluoromethyl)phenyl]carbonyl}piperazinyl)prop-2-en-1-one], the negative logarithm of the IC50 (pIC50) was 6.30 to 7.00. The result for `O=C(c1cc2cc(Cl)ccc2[nH]1)N1CCN(c2ccc(F)cc2F)CC1` [Compound C434, 4-(2,4-difluorophenyl)piperazinyl 5-chloroindol-2-yl ketone] reads 6.30 to 7.00; that for `O=C(C#Cc1ccc(Cl)cc1)N1CCN(Cc2ccc(F)cc2C(F)(F)F)CC1` [Compound C435, 3-(4-chlorophenyl)-1-(4-{[4-fluoro-2-(trifluoromethyl)phenyl]methyl}piperazinyl)prop-2-yn-1-one], 6.30 to 7.00. As to `O=C(c1cc(Br)c[nH]1)N1CCN(C(c2ccccc2)c2ccccc2)CC1` [Compound C436, 4-(diphenylmethyl)piperazinyl 4-bromopyrrol-2-yl ketone], the pIC50 is 6.30 to 7.00. With `O=C(C#Cc1ccc(Cl)c(Cl)c1)N1CCN(C(=O)c2ccc(F)cc2C(F)(F)F)CC1` [Compound C437, 3-(3,4-dichlorophenyl)-1-(4-{[4-fluoro-2-(trifluoromethyl)phenyl]carbonyl}piperazinyl)prop-2-yn-1-one], the negative-log IC50 (pIC50) is 6.30 to 7.00. The result for `O=C(/C=C/c1ccc(Cl)cc1F)N1CCN(S(=O)(=O)c2ccccc2)CC1` [Compound C439, (2E)-3-(4-chloro-2-fluorophenyl)-1-[4-(phenylsulfonyl)piperazinyl]prop-2-en-1-one] reads 6.30 to 7.00; that for `O=C(c1cccc(B(O)O)c1)N1CCN(C(=O)c2cc3cc(Cl)ccc3[nH]2)CC1` [Compound C440, 3-(4-(5-chloro-1H-indole-2-carbonyl)piperazine-1-carbonyl)phenylboronic acid], 6.30 to 7.00. As to `O=C(/C=C/c1cc(Br)ccc1F)N1CCN(C(c2ccccc2)c2ccccc2)CC1` [Compound C441, (2E)-1-[4-(diphenylmethyl)piperazinyl]-3-(5-bromo-2-fluorophenyl)prop-2-en-1-one], the pIC50 is 6.30 to 7.00. `Cc1ccccc1/C=C/C(=O)N1CCN(S(=O)(=O)c2ccc(Br)cc2)CC1` [Compound C442, (2E)-1-{4-[(4-bromophenyl)sulfonyl]piperazinyl}-3-(2-methylphenyl)prop-2-en-1-one]: the pIC50 was 6.30 to 7.00. Take `O=C(c1cc2ccc(Cl)cc2[nH]1)N1CCN(C(=O)c2ccc(F)cc2C(F)(F)F)CC1` [Compound C447, 6-chloroindol-2-yl 4-{[4-fluoro-2-(trifluoromethyl)phenyl]carbonyl}piperazinyl ketone]: the pIC50 is 6.30 to 7.00. With `CC(C)(C)c1ccc(S(=O)(=O)N2CCN(C(=O)/C=C/c3ccc(Cl)cc3F)CC2)cc1` [Compound C448, (2E)-1-(4-{[4-(tert-butyl)phenyl]sulfonyl}piperazinyl)-3-(4-chloro-2-fluorophenyl)prop-2-en-1-one], the pIC50 is 6.30 to 7.00. `O=C(c1cc2cc(Cl)ccc2[nH]1)N1CCC(NC2CCCC2)CC1` [Compound C449, 5-chloroindol-2-yl 4-(cyclopentylamino)piperidyl ketone]: the pIC50 was 6.30 to 7.00. With `O=C(Nc1ccc(F)c(C(F)(F)F)c1)N1CCN(C(=O)c2cc3cc(Cl)ccc3[nH]2)CC1` [Compound C450, {4-[(5-chloroindol-2-yl)carbonyl]piperazinyl}-N-[4-fluoro-3-(trifluoromethyl)phenyl]carboxamide], the pIC50 is 6.30 to 7.00. Turning to `O=C(Nc1cccc(F)c1)N1CCN(C(=O)c2cc3cc(Cl)ccc3[nH]2)CC1` [Compound C451, {4-[(5-chloroindol-2-yl)carbonyl]piperazinyl}-N-(3-fluorophenyl)carboxamide], the pIC50 was 6.30 to 7.00. Take `O=C(c1cc2ccccc2o1)N1CCN(Cc2ccc3c(c2)OCO3)CC1` [Compound C452, 4-(2H-benzo[d]1,3-dioxolan-5-ylmethyl)piperazinyl benzo[d]furan-2-yl ketone]: the pIC50 was 6.30 to 7.00.

Consider `Cc1ccc(/C=C/C(=O)N2CCN(C(c3ccccc3)c3ccccc3)CC2)cc1` [Compound C453, (2E)-1-[4-(diphenylmethyl)piperazinyl]-3-(4-methylphenyl)prop-2-en-1-one], for which the pIC50 was 6.30 to 7.00.

With `O=C(c1cc2cc(Cl)ccc2[nH]1)N1CCN(S(=O)(=O)c2ccc(-c3ccccc3)cc2)CC1` [Compound C454, 5-chloroindol-2-yl 4-[(4-phenylphenyl)sulfonyl]piperazinyl ketone], the pIC50 is 6.30 to 7.00. As to `O=C(/C=C/c1ccccc1F)N1CCN(S(=O)(=O)c2ccc(Br)cc2)CC1` [Compound C455, (2E)-1-{4-[(4-bromophenyl)sulfonyl]piperazinyl}-3-(2-fluorophenyl)prop-2-en-1-one], the negative logarithm of the IC50 (pIC50) was 6.30 to 7.00. The result for `O=C(Nc1ccc(C(F)(F)F)cc1)N1CCN(C(=O)c2cc3cc(Cl)ccc3[nH]2)CC1` [Compound C456, {4-[(5-chloroindol-2-yl)carbonyl]piperazinyl}-N-[4-(trifluoromethyl)phenyl]carboxamide] reads 6.30 to 7.00; that for `O=C(C=Cc1ccc2c(c1)OCO2)N1CCN(C(=O)c2ccc(-c3nnn[nH]3)cc2)CC1` [Compound C457, 3-(2H-benzo[3,4-d]1,3-dioxolan-5-yl)-1-{4-[(4-(1H-1,2,3,4-tetraazol-5-yl)phenyl)carbonyl]piperazinyl}prop-2-en-1-one], 6.30 to 7.00.

As for `O=C(O)c1ccc(C(=O)N2CCN(C(=O)c3cc4cc(Cl)ccc4[nH]3)CC2)cc1` [Compound C460, 4-({4-[(5-chloroindol-2-yl)carbonyl]piperazinyl}carbonyl)benzoic acid], the pIC50 is 6.30 to 7.00.

As for `O=C(C#Cc1ccc(F)cc1)N1CCN(Cc2ccc(Cl)cc2)CC1` [Compound C461, 1-{4-[(4-chlorophenyl)methyl]piperazinyl}-3-(4-fluorophenyl)prop-2-yn-1-one], the pIC50 is 6.30 to 7.00. Turning to `O=C(C=Cc1ccc2c(c1)OCO2)N1CCN(Cc2ccc(F)cc2)CC1` [Compound C463, 3-(2H-benzo[3,4-d]1,3-dioxolan-5-yl)-1-{4-[(4-fluorophenyl)methyl]piperazinyl}prop-2-en-1-one], the pIC50 is 6.30 to 7.00.

For `O=C(c1cnc2ccccc2c1)N1CCN(Cc2ccc(Cl)cc2)CC1` [Compound C464, 4-[(4-chlorophenyl)methyl]piperazinyl 3-quinolyl ketone], the negative logarithm of the IC50 (pIC50) was 6.30 to 7.00. The result for `Cc1nc2ccc(C(=O)N3CCN(C(c4ccccc4)c4ccccc4)CC3)cc2[nH]1` [Compound C465, 4-(diphenylmethyl)piperazinyl 2-methylbenzimidazol-5-yl ketone] reads 6.30 to 7.00. The result for `O=C(c1cc2ccccc2cn1)N1CCN(C(c2ccccc2)c2ccccc2)CC1` [Compound C468, 4-(diphenylmethyl)piperazinyl 3-isoquinolyl ketone] reads 6.30 to 7.00. On to `O=C(C#Cc1ccccc1C(F)(F)F)N1CCN(Cc2ccc(Cl)cc2)CC1` [Compound C469, 1-{4-[(4-chlorophenyl)methyl]piperazinyl}-3-[2-(trifluoromethyl)phenyl]prop-2-yn-1-one], for which the pIC50 was 6.30 to 7.00. Turning to `O=C(c1cc2cc(Cl)ccc2[nH]1)N1CCN(c2ccc(F)cc2)CC1` [Compound C470, 5-chloroindol-2-yl 4-(4-fluorophenyl)piperazinyl ketone], the negative-log IC50 (pIC50) is 6.30 to 7.00. On to `O=C(c1ccc(Br)cc1)N1CCN(Cc2ccc(Cl)cc2)CC1` [Compound C472, 4-bromophenyl 4-[(4-chlorophenyl)methyl]piperazinyl ketone], for which the pIC50 is 6.30 to 7.00. Consider `COc1ccc(CN2CCN(C(=O)C#Cc3cccc(Cl)c3)CC2)cc1` [Compound C473, 3-(3-chlorophenyl)-1-{4-[(4-methoxyphenyl)methyl]piperazinyl}prop-2-yn-1-one], for which the pIC50 was 6.30 to 7.00. On to `O=C(Nc1cccc(I)c1)N1CCN(C(=O)c2cc3cc(Cl)ccc3[nH]2)CC1` [Compound C474, {4-[(5-chloroindol-2-yl)carbonyl]piperazinyl}-N-(3-iodophenyl)carboxamide], for which the pIC50 was 6.30 to 7.00. Regarding `O=C(C#Cc1ccccc1C(F)(F)F)N1CCN(Cc2ccc(C(F)(F)F)cc2)CC1` [Compound C475, 3-[2-(trifluoromethyl)phenyl]-1-(4-{[4-(trifluoromethyl)phenyl]methyl}piperazinyl)prop-2-yn-1-one], the pIC50 is 6.30 to 7.00. On to `O=C(c1cc2cc(Cl)ccc2[nH]1)N1CCN(c2ccccc2F)CC1` [Compound C476, 5-chloroindol-2-yl 4-(2-fluorophenyl)piperazinyl ketone], for which the pIC50 was 6.30 to 7.00. For the compound `O=C(Nc1ccc(F)cc1F)N1CCN(C(=O)c2cc3cc(Cl)ccc3[nH]2)CC1` [Compound C477, N-(2,4-difluorophenyl){4-[(5-chloroindol-2-yl)carbonyl]piperazinyl}carboxamide], the pIC50 is 6.30 to 7.00. On to `O=C(c1cc2ccccn2n1)N1CCN(C(c2ccccc2)c2ccccc2)CC1` [Compound C478, 4-(diphenylmethyl)piperazinyl 8-hydropyrazolo[1,5-a]pyridin-2-yl ketone], for which the negative logarithm of the IC50 (pIC50) was 6.30 to 7.00.

For `O=C(C=Cc1ccc2c(c1)OCO2)N1CCN(C(=O)c2ccc(F)cc2C(F)(F)F)CC1` [Compound C479, 3-(2H-benzo[3,4-d]1,3-dioxolan-5-yl)-1-(4-{[4-fluoro-2-(trifluoromethyl)phenyl]carbonyl}piperazinyl)prop-2-en-1-one], the pIC50 is 6.30 to 7.00.

As usually defined, the pIC50 is the IC50 on a negative log10 scale, so that one unit is a factor of ten.
